In PubChem BioAssay AID248 (DTP/NCI, 2004):
Values joined by “and” are separate entries in the source; they are usually repeats but may differ in a detail not shown here. Equal entries are not always repeated. Toxic doses and inconclusive results are not listed. No stated cut-off is given here; in the data, active means T/C of 150% or more; inactive means T/C below 125%.

Test system: L1210 leukemia ip in BDF1 mice, survival T/C
Assay: NCI In Vivo Anticancer Drug Screen. Data for tumor model L1210 Leukemia (intraperitoneal) in B6D2F1 (BDF1) mice
Details: endpoint: mean survival time, higher = longer survival
Procedure, shortened: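 Antitumor effect is assessed in tumor-bearing animals. Survival in the compound arm is compared with a vehicle-dosed control arm and expressed as their quotient.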

[1] = dose: 50.0 mg/kg/injection, schedule: Q01DX009 (ip), vehicle: saline with Tween-80
[2] = dose: 100.0 mg/kg/injection, schedule: Q01DX001 (ip), vehicle: Klucel (hydroxypropylcellulose) (HPC)
[3] = dose: 100.0 mg/kg/injection, schedule: Q04DX003 (ip), vehicle: Klucel (hydroxypropylcellulose) (HPC)
[4] = dose: 200.0 mg/kg/injection, schedule: Q04DX003 (ip), vehicle: Klucel (hydroxypropylcellulose) (HPC)
[5] = dose: 400.0 mg/kg/injection, schedule: Q04DX003 (ip), vehicle: Klucel (hydroxypropylcellulose) (HPC)
[6] = dose: 100.0 mg/kg/injection, schedule: Q01DX009 (ip), vehicle: Klucel (hydroxypropylcellulose) (HPC)
[7] = dose: 200.0 mg/kg/injection, schedule: Q01DX009 (ip), vehicle: Klucel (hydroxypropylcellulose) (HPC)
[8] = dose: 100.0 mg/kg/injection, schedule: Q04DX003 (ip), vehicle: saline with Tween-80
[9] = dose: 100.0 mg/kg/injection, schedule: Q01DX001 (ip), vehicle: carboxymethylcellulose (CMC)
[10] = dose: 100.0 mg/kg/injection, schedule: Q01DX009 (ip), vehicle: saline
[11] = dose: 100.0 mg/kg/injection, schedule: Q04DX003 (ip), vehicle: saline
[12] = dose: 200.0 mg/kg/injection, schedule: Q01DX001 (ip), vehicle: carboxymethylcellulose (CMC)
[13] = dose: 200.0 mg/kg/injection, schedule: Q04DX003 (ip), vehicle: saline
[14] = dose: 400.0 mg/kg/injection, schedule: Q01DX001 (ip), vehicle: carboxymethylcellulose (CMC)

Measured: T/C

CNS(=O)(=O)c1ccccc1CC(O)(c1ccccc1)c1ccccc1
inactive: dose: 100.0 mg/kg/injection, schedule: Q01DX001 (ip), vehicle: steriod suspending solution 88 % of control | dose: 200.0 mg/kg/injection, schedule: Q01DX001 (ip), vehicle: steriod suspending solution 87 % of control

C=CCC(CO)(c1ccccc1)c1ccccc1
inactive: [1] 97 % of control | dose: 100.0 mg/kg/injection, schedule: Q01DX009 (ip), vehicle: saline with Tween-80 87 % of control | dose: 200.0 mg/kg/injection, schedule: Q01DX009 (ip), vehicle: saline with Tween-80 97 % of control

CC(=O)Nc1ccc(NC(=O)c2ccc(F)cc2)cc1
inactive: dose: 100.0 mg/kg/injection, schedule: Q01DX009 (ip), vehicle: gum acacia 91 % of control | dose: 200.0 mg/kg/injection, schedule: Q01DX009 (ip), vehicle: gum acacia 89 % of control | dose: 400.0 mg/kg/injection, schedule: Q01DX009 (ip), vehicle: gum acacia 102 % of control

CN(Cc1cnc2nc(N)nc(N)c2n1)c1cc(Cl)c(C(=O)NC(CCC(=O)O)C(=O)O)cc1Cl (stereo unspecified)
inactive: dose: 6.25 mg/kg/injection, schedule: Q01DX009 (ip), vehicle: sodium bicarbonate 106 % of control | dose: 12.5 mg/kg/injection, schedule: Q01DX009 (ip), vehicle: sodium bicarbonate 115 % of control

C(=N\OCCc1ccccc1)/c1cccnc1
inactive: dose: 100.0 mg/kg/injection, schedule: Q01DX009 (ip), vehicle: saline sonified 98 % of control | dose: 200.0 mg/kg/injection, schedule: Q01DX009 (ip), vehicle: saline sonified 100 % of control | dose: 400.0 mg/kg/injection, schedule: Q01DX009 (ip), vehicle: saline sonified 102 % of control

O=C1C=C(c2ccccc2)C(O)(c2ccccc2)/C1=C/c1ccccc1 (stereo unspecified)
inactive: dose: 6.25 mg/kg/injection, schedule: Q04DX002 (ip), vehicle: saline with Tween-80 100 % of control | dose: 12.5 mg/kg/injection, schedule: Q04DX002 (ip), vehicle: saline with Tween-80 92 % of control | dose: 25.0 mg/kg/injection, schedule: Q04DX002 (ip), vehicle: saline with Tween-80 92 % of control

CC(=O)OCCn1c([N+](=O)[O-])cnc1/C=[N+](/[O-])CCOC(C)=O
inactive: dose: 100.0 mg/kg/injection, schedule: Q04DX002 (ip), vehicle: saline 103 % of control | dose: 200.0 mg/kg/injection, schedule: Q04DX002 (ip), vehicle: saline 92 % of control | dose: 400.0 mg/kg/injection, schedule: Q04DX002 (ip), vehicle: saline 100 % of control

CC(CP(c1ccccc1)c1ccccc1)(CP(c1ccccc1)c1ccccc1)CP(c1ccccc1)c1ccccc1
inactive: [2] 97 % of control | [3] 111 % of control | dose: 200.0 mg/kg/injection, schedule: Q01DX001 (ip), vehicle: Klucel (hydroxypropylcellulose) (HPC) 87 % of control | [4] 105 % of control | dose: 400.0 mg/kg/injection, schedule: Q01DX001 (ip), vehicle: Klucel (hydroxypropylcellulose) (HPC) 87 % of control | [5] 90 % of control

O=S(=O)(Nc1cccc2ccccc12)c1cccc2cccnc12
inactive: [3] 90 % of control | [4] 91 % of control | [5] 91 % of control

Nc1nc(N)c(-c2ccc(Cl)c(Cl)c2)c(COc2ccc(CCNS(=O)(=O)c3ccc(S(=O)(=O)F)cc3)cc2)n1
inactive: dose: 25.0 mg/kg/injection, schedule: Q01DX001 (ip), vehicle: Klucel (hydroxypropylcellulose) (HPC) 96 % of control | dose: 50.0 mg/kg/injection, schedule: Q01DX001 (ip), vehicle: Klucel (hydroxypropylcellulose) (HPC) 102 % of control | [2] 96 % of control

Cc1cc(=O)[nH]c(N2C(=O)c3ccccc3C2=O)n1
inactive: dose: 25.0 mg/kg/injection, schedule: Q04DX003 (ip), vehicle: Klucel (hydroxypropylcellulose) (HPC) 99 % of control | dose: 50.0 mg/kg/injection, schedule: Q04DX003 (ip), vehicle: Klucel (hydroxypropylcellulose) (HPC) 102 % of control

O=[N+]([O-])/C=C/c1ccc([N+](=O)[O-])o1
inactive: dose: 3.0 mg/kg/injection, schedule: Q01DX001 (ip), vehicle: Klucel (hydroxypropylcellulose) (HPC) 106 % of control | dose: 6.0 mg/kg/injection, schedule: Q01DX001 (ip), vehicle: Klucel (hydroxypropylcellulose) (HPC) 98 % of control | dose: 12.0 mg/kg/injection, schedule: Q01DX001 (ip), vehicle: Klucel (hydroxypropylcellulose) (HPC) 92 % of control | dose: 12.5 mg/kg/injection, schedule: Q01DX001 (ip), vehicle: Klucel (hydroxypropylcellulose) (HPC) 107 % of control

COC(=O)c1ccc(OC(=O)Nc2ccc(C)cc2)cc1
inactive: [6] 101 % of control | [7] 100 % of control | dose: 400.0 mg/kg/injection, schedule: Q01DX009 (ip), vehicle: Klucel (hydroxypropylcellulose) (HPC) 101 % of control

CCCCCCCCCCCCCCC(F)C(=O)OCC1OC(CO)(OC2OC(CO)C(O)C(O)C2O)C(O)C1O (stereo unspecified)
inactive: dose: 25.0 mg/kg/injection, schedule: Q01DX009 (ip), vehicle: saline with Tween-80 98 % of control | [1] 100 % of control | [8] 107 % of control

CCCCCCCCCCCC(C1CCC(C)CC1)C1CCC(C)CC1 (stereo unspecified)
inactive: dose: 100.0 mg/kg/injection, schedule: Q01DX001 (ip), vehicle: saline with Tween-80 95 % of control | dose: 400.0 mg/kg/injection, schedule: Q01DX001 (ip), vehicle: saline with Tween-80 89 % of control

CC(=O)CO
inactive: dose: 50.0 mg/kg/injection, schedule: Q01DX001 (ip), vehicle: carboxymethylcellulose (CMC) 98 % of control | [9] 101 % of control | [10] 90 % of control | [11] 93 % of control | [12] 101 % of control | dose: 200.0 mg/kg/injection, schedule: Q01DX009 (ip), vehicle: saline 97 % of control | [13] 96 % of control | [14] 98 % of control | dose: 400.0 mg/kg/injection, schedule: Q01DX009 (ip), vehicle: saline 100 % of control | dose: 400.0 mg/kg/injection, schedule: Q04DX003 (ip), vehicle: saline 101 % of control

CC(Br)C1=CC(c2ccccc2)(c2ccccc2)c2ccccc21 (stereo unspecified)
inactive: [8] 90 % of control | dose: 400.0 mg/kg/injection, schedule: Q04DX003 (ip), vehicle: saline with Tween-80 90 % of control

CCN(CC)CCSC(=O)C(O)(c1ccccc1)C1CCCC1 (stereo unspecified)
inactive: dose: 25.0 mg/kg/injection, schedule: Q01DX009 (ip), vehicle: saline 103 % of control | dose: 50.0 mg/kg/injection, schedule: Q01DX009 (ip), vehicle: saline 97 % of control and 108 % of control | dose: 75.0 mg/kg/injection, schedule: Q01DX001 (ip), vehicle: saline 96 % of control | [10] 100 % of control and 88 % of control | [11] 102 % of control | dose: 150.0 mg/kg/injection, schedule: Q01DX001 (ip), vehicle: saline 92 % of control | [13] 100 % of control

CN(Cc1ccccc1)Cc1ccccc1
inactive: dose: 50.0 mg/kg/injection, schedule: Q01DX009 (ip), vehicle: Klucel (hydroxypropylcellulose) (HPC) 100 % of control | [6] 100 % of control | [3] 97 % of control | [7] 92 % of control | [4] 97 % of control

CC(=O)CCC(C(=O)c1ccccc1)c1ccccc1 (stereo unspecified)
inactive: dose: 222.0 mg/kg/injection, schedule: Q01DX Z (ip), vehicle: methylcellulose (MC) 101 % of control

Cc1nc2ccccc2c(Oc2ccccc2)c1-c1ccccc1
inactive: dose: 50.0 mg/kg/injection, schedule: Q01DX001 (ip), vehicle: saline 102 % of control | dose: 100.0 mg/kg/injection, schedule: Q01DX001 (ip), vehicle: saline 102 % of control | dose: 200.0 mg/kg/injection, schedule: Q01DX001 (ip), vehicle: saline 104 % of control | dose: 400.0 mg/kg/injection, schedule: Q01DX001 (ip), vehicle: saline 96 % of control

COc1ccc(C(C)=O)cc1CCCOC(C)=O
inactive: [9] 95 % of control | [12] 106 % of control | [14] 101 % of control

COc1ccc(NC(=S)Nc2ccc(Cc3ccc(NC(=S)Nc4ccc(OC)cc4)cc3)cc2)cc1
inactive: dose: 100.0 mg/kg/injection, schedule: Q04DX002 (ip), vehicle: saline with Tween-80 101 % of control | dose: 200.0 mg/kg/injection, schedule: Q04DX002 (ip), vehicle: saline with Tween-80 95 % of control | dose: 400.0 mg/kg/injection, schedule: Q04DX002 (ip), vehicle: saline with Tween-80 88 % of control

CCSc1nc(N)c(Br)c(Sc2nc(N)nc3nc[nH]c23)n1
inactive: dose: 100.0 mg/kg/injection, schedule: Q01DX Z (ip), vehicle: methylcellulose (MC) 98 % of control
